This note sets out measurements from patent publication US20190337924A1, “SUBSTITUTED HYDANTOIN AND THIOHYDANTOIN DERIVATIVES AS ANDROGEN RECEPTOR ANTAGONISTS” (Janssen Pharmaceutica NV, priority 2016, published 2019).

Where a name gives a salt, the structure may show the parent alone. Read-outs that look alike come from different tables or passages of the source.

Assay [1] deals with T1, F876L mutant Androgen Receptor (AR-F876L) (Homo sapiens, UniProt P10275, F877L).
T1 construct: expressed in transfected cells; host or cells: LNCaP
T1 sequence (P10275 1-920 F877L): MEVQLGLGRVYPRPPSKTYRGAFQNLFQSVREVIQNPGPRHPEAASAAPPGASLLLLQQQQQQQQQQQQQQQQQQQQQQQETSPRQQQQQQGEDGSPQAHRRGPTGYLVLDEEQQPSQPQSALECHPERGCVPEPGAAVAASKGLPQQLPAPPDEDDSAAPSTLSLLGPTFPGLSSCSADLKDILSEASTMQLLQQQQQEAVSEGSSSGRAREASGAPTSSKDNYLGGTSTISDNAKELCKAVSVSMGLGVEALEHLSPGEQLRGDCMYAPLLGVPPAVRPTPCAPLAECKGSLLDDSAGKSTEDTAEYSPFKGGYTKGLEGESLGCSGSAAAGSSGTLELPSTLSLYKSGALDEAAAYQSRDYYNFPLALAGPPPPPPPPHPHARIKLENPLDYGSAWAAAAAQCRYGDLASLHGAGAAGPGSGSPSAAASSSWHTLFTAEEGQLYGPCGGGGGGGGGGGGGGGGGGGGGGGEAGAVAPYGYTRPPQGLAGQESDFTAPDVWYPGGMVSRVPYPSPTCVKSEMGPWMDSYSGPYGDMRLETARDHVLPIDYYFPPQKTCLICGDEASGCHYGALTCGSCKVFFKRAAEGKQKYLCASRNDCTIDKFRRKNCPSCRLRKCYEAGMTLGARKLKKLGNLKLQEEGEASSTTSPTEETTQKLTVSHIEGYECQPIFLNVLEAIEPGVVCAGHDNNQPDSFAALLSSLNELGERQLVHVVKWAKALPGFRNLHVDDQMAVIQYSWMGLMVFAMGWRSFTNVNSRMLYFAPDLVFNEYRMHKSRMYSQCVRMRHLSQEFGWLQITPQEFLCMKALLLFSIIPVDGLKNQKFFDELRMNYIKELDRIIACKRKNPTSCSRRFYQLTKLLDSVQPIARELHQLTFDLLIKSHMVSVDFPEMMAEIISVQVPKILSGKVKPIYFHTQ
The assay can be described thus: AR reporter assay, LNCaP-AR-F876L ANT (antagonist mode). It counts as cell-based. The conditions noted are these: for Emax: read-out: LNCaP-AR-F876L ANT MAX % Inh. From the text: (§1) LNCaP AR (cs) and LNCaP F876L luciferase cell lines were generated by transduction of each cell line (description of cell line generation Joseph J D, Lu N, Qian J, Sensintaffar J, Shao G, Brigham D, Moon M, Maneval E C, Chen I, Darimont B, Hager J H. A clinically relevant androgen receptor mutation confers resistance to second-generation antiandrogens enzalutamide and ARN-509. Cancer Discov 2013; 3:1020-1029) with an Androgen Response Element Firefly Luciferase lentiviral construct at an MOI (multiplicity of infection) of 50 following the manufacturer's instructions (Qiagen). A stable pooled-population cell line was generated using puromycin (Life Technologies) selection at 1:10,000 v/v. The protocol below was used for both cell lines and for testing of the compounds of Formula (I) of the present invention.
(§2) LNCaP cells were grown to about 80% confluence, media removed and cells rinsed in Hank's balanced salt solution prior to separation from the plate with 0.05% Trypsin EDTA. Cells were lifted and trypsin negated in complete CSS (charcoal stripped serum) culture media. CSS was maintained on cells for 24 h prior to assay, at which time 5,000 cells/[…] were seeded in Greiner 384 well White/White Tissue Culture Treated Plates and incubated for a further 1-2 hours at 37° C., 5% CO2, prior to addition of 10 μL of 4× Test Compounds (compounds described herein) or Assay Controls (all diluted in complete media containing 10% css). A further 10 μL of 4× R-1881 Agonist Challenge (antagonist assay) or Buffer (agonist assay) was then added (all diluted in complete media containing 10% css). Agonist challenge was at 400 pM for WT assay and 600 pM for F876L assay. Plates containing cells and compounds herein were incubated for a further 20-24 hours at 37° C., 5% CO2 before addition of 40 μL/well of Steady-Glo Luciferase Assay System Reagent (Promega#E2520). After 1 h, plates were read for luminescence on a BMG Pherastar.
Agonist challenge: R-1881 (Metribolone)—Agonist
Antagonist control (low control): 5-(5-(4-((1-Methylpiperidin-4-yl)oxy)phenyl)-8-oxo-6-thioxo-5,7-diazaspiro[3.4]octan-7-yl)-3-(trifluoromethyl)picolinonitrile (WO 2011/103202, EXAMPLE 19, Compound 129, CAS #1332390-06-3).
(1−(Sample RLU−Ave Low Control RLU[10 μM Antagonist Control])/(Ave High Control RLU [400 pM R-1881]−Ave Low Control RLU[10 μM Antagonist Control]))*100.
(§3) EC/IC50 calculations were achieved utilizing calculated RLU data and data fitting macros. Data were fit using least-squares methods to the following formula: […]
(§4) As used herein: • pIC50 is defined as −Log10(IC50 expressed in [Molar]). • pEC50 is defined as −Log10(EC50 expressed in [Molar]). • MAX % Inh is defined as the maximum % inhibition of R1881 control response observed for a compound over the tested concentration range. • MAX % Stim is defined as the maximum % stimulation (agonist response) observed for a compound over the tested concentration range. • LNCaP-AR-wt ANT refers to the reporter assay using LNCaP cells stably transfected with the Androgen Response Element Firefly Luciferase lentiviral construct and wild-type Androgen Receptor (AR-wt) in Antagonist mode. • LNCaP-AR-wt AG refers to the reporter assay using LNCaP cells stably transfected with the Androgen Response Element Firefly Luciferase lentiviral construct and wild-type Androgen Receptor (AR-wt) in Agonist mode. • LNCaP-AR-F876L ANT refers to the reporter assay using LNCaP cells stably transfected with the Androgen Response Element Firefly Luciferase lentiviral construct and F876L mutant Androgen Receptor (AR-F876L) in Antagonist mode. • LNCaP-AR-F876L AG refers to the reporter assay using LNCaP cells stably transfected with the Androgen Response Element Firefly Luciferase lentiviral construct and F876L mutant Androgen Receptor (AR-F876L) in Agonist mode.

Assay [2] addresses T1, F876L mutant Androgen Receptor (AR-F876L). The assay can be described thus: AR reporter assay, LNCaP-AR-F876L AG (agonist mode). Conditions: for Emax: read-out: LNCaP-AR-F876L AG MAX % Stim. It counts as cell-based.
From the text: as §1, §2
((Sample RLU−Ave Low Control RLU[DMSO/Buffer])/(Ave High Control RLU [1 μM R-1881]—Ave Low Control RLU[DMSO/Buffer]))*100.
as §3, §4

[3] abbreviates: antagonist mode, 600 pM R-1881 challenge, luciferase reporter, -Log10(IC50 in Molar), read-out: LNCaP-AR-F876L ANT pIC50 (converted).
Where [4] appears, read: agonist mode (buffer, no R-1881), -Log10(EC50 in Molar), read-out: LNCaP-AR-F876L AG pEC50 (converted).

Turning to `N#Cc1ccc(N2C(=O)C3(CCC3)N(c3ccc(OC4CCNCC4)nc3)C2=S)cc1C(F)(F)F` [Compound 13, 4-(8-Oxo-5-(6-(piperidin-4-yloxy)pyridin-3-yl)-6-thioxo-5,7-diazaspiro[3.4]octan-7-yl)-2-(trifluoromethyl)benzonitrile hydrochloride], in assay [1], the IC50 was 0.0575 µM and the Emax worked out at 102%. In addition, in assay [2], the EC50 is above 15.1 µM and the Emax turned out to be 0%.
As to `CN1CCC(Oc2ccc(N3C(=S)N(c4ccc(C#N)c(C(F)(F)F)c4)C(=O)C34CCC4)cn2)CC1` [Compound 14, 4-(5-(6-((1-Methylpiperidin-4-yl)oxy)pyridin-3-yl)-8-oxo-6-thioxo-5,7-diazaspiro[3.4]octan-7-yl)-2-(trifluoromethyl)benzonitrile], in assay [1], the IC50 was 0.0575 µM and the Emax turned out to be 101%. Further, in assay [2], the EC50 was above 15.1 µM and the Emax is 0.1%.
Consider `N#Cc1ccc(N2C(=O)C3(CCC3)N(c3cnc(OC4CCNCC4)nc3)C2=S)cc1C(F)(F)F` [Compound 15, 4-(8-Oxo-5-(2-(piperidin-4-yloxy)pyrimidin-5-yl)-6-thioxo-5,7-diazaspiro[3.4]octan-7-yl)-2-(trifluoromethyl)benzonitrile], for which the IC50 in assay [1] (setting [3]) was 0.107 µM. For the same compound, the Emax in assay [1] was 101%; in assay [2], -0.1%. This compound came in with an EC50 in assay [2] above 15.1 µM.
For `CN1CCC(Oc2ncc(N3C(=S)N(c4ccc(C#N)c(C(F)(F)F)c4)C(=O)C34CCC4)cn2)CC1` [Compound 16, 4-(5-(2-((1-Methylpiperidin-4-yl)oxy)pyrimidin-5-yl)-8-oxo-6-thioxo-5,7-diazaspiro[3.4]octan-7-yl)-2-(trifluoromethyl)benzonitrile], in that order: 0.166 µM, 101%, 0.1% and above 15.1 µM.
Regarding `Cc1cc(N2C(=O)C3(CCC3)N(c3ccc(OC4CCN(C)CC4)cc3)C2=S)ccc1C#N` [Compound 17, 2-Methyl-4-(5-(4-((1-methylpiperidin-4-yl)oxy)phenyl)-8-oxo-6-thioxo-5,7-diazaspiro[3.4]octan-7-yl)benzonitrile], the IC50 in assay [1] (setting [3]) was 0.129 µM. In addition, the Emax is 101% in assay [1] and 0.2% in assay [2]. Further, the EC50 in assay [2] (setting [4]) was above 15.1 µM.
The corresponding values for `Cc1cc(N2C(=O)C3(CCC3)N(c3ccc(OC4CCN(C)CC4)nc3)C2=S)ccc1C#N` [Compound 18, 2-Methyl-4-(5-(6-((1-methylpiperidin-4-yl)oxy)pyridin-3-yl)-8-oxo-6-thioxo-5,7-diazaspiro[3.4]octan-7-yl)benzonitrile] are 0.282 µM, 99.8%, 2.6% and above 15.1 µM.
`COc1cc(N2C(=O)C3(CCC3)N(c3ccc(OC4CCN(C)CC4)cc3)C2=S)ccc1C#N` [Compound 19, 2-Methoxy-4-(5-(4-((1-methylpiperidin-4-yl)oxy)phenyl)-8-oxo-6-thioxo-5,7-diazaspiro[3.4]octan-7-yl)benzonitrile]: in assay [1], the IC50 was 0.0832 µM and the Emax stood at 101%. In addition, in assay [2], the EC50 is above 15.1 µM and the Emax came to 0.3%.
For the compound `COc1cc(N2C(=O)C3(CCC3)N(c3ccc(OC4CCN(C)CC4)nc3)C2=S)ccc1C#N` [Compound 20, 2-Methoxy-4-(5-(6-((1-methylpiperidin-4-yl)oxy)pyridin-3-yl)-8-oxo-6-thioxo-5,7-diazaspiro[3.4]octan-7-yl)benzonitrile], the IC50 in assay [1] (setting [3]) is 0.145 µM. In addition, the Emax was 100% in assay [1] and 0.3% in assay [2]. Besides, the EC50 in assay [2] was above 15.1 µM.
For `N#Cc1ccc(N2C(=O)C3(CCC3)N(c3ccc(OC4CCNCC4)cc3)C2=S)cc1Cl` [Compound 21, 2-Chloro-4-(8-oxo-5-(4-(piperidin-4-yloxy)phenyl)-6-thioxo-5,7-diazaspiro[3.4]octan-7-yl)benzonitrile], in that order: 0.2 µM, 104%, 0.2% and above 15.1 µM.
For `CN1CCC(Oc2ccc(N3C(=S)N(c4ccc(C#N)c(Cl)c4)C(=O)C34CCC4)cc2)CC1` [Compound 22, 2-Chloro-4-(5-(4-((1-methylpiperidin-4-yl)oxy)phenyl)-8-oxo-6-thioxo-5,7-diazaspiro[3.4]octan-7-yl)benzonitrile], in assay [1], the IC50 was 0.112 µM and the Emax is 99.5%. In assay [2], the EC50 is above 15.1 µM and the Emax came out at 0%.
For `N#Cc1ccc(N2C(=O)C3(CCC3)N(c3ccc(OC4CCNCC4)nc3)C2=S)cc1Cl` [Compound 23, 2-Chloro-4-(8-oxo-5-(6-(piperidin-4-yloxy)pyridin-3-yl)-6-thioxo-5,7-diazaspiro[3.4]octan-7-yl)benzonitrile hydrochloride], in that order: 0.0501 µM, 103%, above 15.1 µM and 0.3%.
For `CN1CCC(Oc2ccc(N3C(=S)N(c4ccc(C#N)c(Cl)c4)C(=O)C34CCC4)cn2)CC1` [Compound 24, 2-Chloro-4-(5-(6-((1-methylpiperidin-4-yl)oxy)pyridin-3-yl)-8-oxo-6-thioxo-5,7-diazaspiro[3.4]octan-7-yl)benzonitrile hydrochloride], in that order: 0.0776 µM, 99.8%, above 15.1 µM and 0.1%.
